Counter-ions that a name gives are not always drawn.
Test system: A549
Assay: Cell-based assay, anti-proliferative activity (Cell Counting Kit-8, 72 hours)
Settings: Homo sapiens; A549 cells, 72 hours exposure, Cell Counting Kit-8; read-out: A549 IC50
Protocol: 100 micro-L of cell suspension was seeded onto 96-well microtiter plate (ViewPlate-96FTC, PerkinElmer). […] Cellular growth was determined using Cell Counting Kit-8 (DOJINDO) at 72 hours after the exposure of the candidate inhibitors. […] Accurate IC50 values were calculated as described previously.

First: COc1cc(OC)c(-c2cn3ccc(N4CC[C@H](NCC5CCN(S(=O)(=O)C6CC6)CC5)C4)cc3n2)cc1Cl [Example 421, (S)-1-(2-(5-chloro-2,4-dimethoxyphenyl)imidazo[1,2-a]pyridin-7-yl)-N-((1-(cyclopropylsulfonyl)piperidin-4-yl)methyl)pyrrolidin-3-amine]
Second: COCC(=O)N1CCN(c2ccn3cc(-c4cc(Cl)c(OC)cc4OC)nc3c2)C(C)C1 (centres unmarked) [Example 313, 1-(4-(2-(5-chloro-2,4-dimethoxyphenyl)imidazo[1,2-a]pyridin-7-yl)-3-methylpiperazin-1-yl)-2-methoxyethanone]
The IC50 of the first is 11-fold lower: 940 nM for the first, 10000 nM for the second.

Compared with COC(=O)c1ccc(CN[C@H]2CC[C@@H](Nc3ccn4cc(-c5cc(Cl)c(OC)cc5OC)nc4c3)CC2)cc1 [Example 409, methyl 4-(((cis-4-((2-(5-chloro-2,4-dimethoxyphenyl)imidazo[1,2-a]pyridin-7-yl)amino)cyclohexyl)amino)methyl)benzoate bis(2,2,2-trifluoroacetate)], COc1cc(OC)c(-c2cn3ccc(N4CCN(c5cnc(N6CCNCC6)nc5)CC4)cc3n2)cc1Cl [Example 344, 2-(5-chloro-2,4-dimethoxyphenyl)-7-(4-(2-(piperazin-1-yl)pyrimidin-5-yl)piperazin-1-yl)imidazo[1,2-a]pyridine bis(2,2,2-trifluoroacetate)] is 2.5-fold lower in IC50: 860 nM for the first, 350 nM for the second.

Target: SUV39H2 (Homo sapiens (Human), UniProt Q9H5I1)
Sequence (Q9H5I1 whole entry): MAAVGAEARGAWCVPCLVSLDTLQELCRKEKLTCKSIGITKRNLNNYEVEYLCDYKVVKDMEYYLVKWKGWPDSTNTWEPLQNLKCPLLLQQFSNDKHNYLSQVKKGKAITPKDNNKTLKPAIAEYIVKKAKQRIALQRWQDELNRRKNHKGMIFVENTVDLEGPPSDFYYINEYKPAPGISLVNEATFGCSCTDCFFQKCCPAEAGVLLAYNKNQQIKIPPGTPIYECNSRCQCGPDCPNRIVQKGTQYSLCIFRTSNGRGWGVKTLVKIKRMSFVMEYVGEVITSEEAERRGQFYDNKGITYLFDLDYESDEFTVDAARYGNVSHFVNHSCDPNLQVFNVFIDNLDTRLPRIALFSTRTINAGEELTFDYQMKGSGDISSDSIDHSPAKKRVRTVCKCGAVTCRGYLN
Assay: not given
Settings: read-out: IC50 (μM) Suv 39H2 assay

In the case of COc1cc(OC)c(-c2cn3ccc(N4CCCC4)nc3n2)cc1C#N [Example 69, 2,4-dimethoxy-5-(7-(pyrrolidin-1-yl)imidazo[1,2-a]pyrimidin-2-yl)-benzonitrile hydrochloride], the IC50 is reported as 0.0141 µM.

Same assay, conditions: read-out: IC50 (μM) Suv 39H2 assay; enzyme assay

Compared with COc1cc(OC)c(-c2cn3ccc(N4CCC(NC(=O)[C@H](CCC(N)=O)NC(=O)OC(C)(C)C)C4)cc3n2)cc1Cl (stereo partly drawn) [Example 39, tert-butyl ((2S)-5-amino-1-((1-(2-(5-chloro-2,4-dimethoxyphenyl)imidazo[1,2-a]pyridin-7-yl)pyrrolidin-3-yl)amino)-1,5-dioxopentan-2-yl)carbamate], “3-amino-N-(3-(2-(5-bromo-2,4-dimethoxyphenyl)imidazo[1,2-a]pyrimidin-7-yl)cyclopentyl)propanamide hydrochloride [Example 68]” is 3.3-fold higher in IC50: 0.00489 µM for the first, 0.0162 µM for the second.

COc1cc(OC)c(-c2cn3ccc(O)cc3n2)cc1Cl [Example 20, 2-(5-chloro-2,4-dimethoxyphenyl)imidazo[1,2-a]pyridin-7-ol] and COc1cc(OC)c(-c2cn3ccc(C)cc3n2)cc1Cl [Example 76, 2-(5-chloro-2,4-dimethoxyphenyl)-7-methylimidazo[1,2-a]pyridine hydrobromide] are within 1.5-fold of each other in IC50: 0.09 µM for the first, 0.0665 µM for the second.

Compared with COc1cc(OC)c(-c2cn3ccc(N4CCC(NC(N)=O)C4)cc3n2)cc1Cl (centres unmarked) [Example 38, 1-(1-(2-(5-chloro-2,4-dimethoxyphenyl)imidazo[1,2-a]pyridin-7-yl)pyrrolidin-3-yl)urea], COc1cc(OC)c(-c2cn3ccc(N)nc3n2)cc1C#N [Example 46, 5-(7-aminoimidazo[1,2-a]pyrimidin-2-yl)-2,4-dimethoxybenzonitrile] is 11-fold higher in IC50: 0.00411 µM for the first, 0.0453 µM for the second. The first is the more potent here.

COc1cc(OC)c(-c2cn3ccc(N4CCC(NC(=O)CCN)C4)cc3n2)cc1Cl (centres unmarked) [Example 50, 3-amino-N-(1-(2-(5-chloro-2,4-dimethoxyphenyl)imidazo[1,2-a]pyridin-7-yl)pyrrolidin-3-yl)propanamide] and COc1cc(OC)c(-c2cn3ccc(N4CCC(NC(=O)NCCN)C4)cc3n2)cc1Cl (centres unmarked) [Example 62, 1-(2-aminoethyl)-3-(1-(2-(5-chloro-2,4-dimethoxyphenyl)imidazo[1,2-a]-pyridin-7-yl)pyrrolidin-3-yl)urea] are within 1.5-fold of each other in IC50: 0.00575 µM for the first, 0.00514 µM for the second.

With COc1cc(OC)c(-c2cn3ccc(C4=CCN(CCC(=O)O)CC4)cc3n2)cc1Cl [Example 141, 3-(4-(2-(5-chloro-2,4-dimethoxyphenyl)imidazo[1,2-a]pyridin-7-yl)-5,6-dihydropyridin-1(2H)-yl)propanoic acid] the IC50 was 0.0777 µM.
